Measured values reported in publication PMC7316994, “In Vitro Pharmacological Profile of a New Small Molecule Bradykinin B2 Receptor Antagonist” (Frontiers in Pharmacology, 2020).
Where two headings read alike, the source gives them in different places. Peptide text beside a SMILES is read from it.

Columns and labels:
human myc-B2 receptor = target: T1, human myc-B2 receptor (Homo sapiens, UniProt P30411); test: c-Fos immunoblot, HEK 293a cells stably expressing myc-B2 receptor; type: cell-based; conditions: BK 10 nM
T1 construct: expressed in transfected cells
T1 sequence (P30411 1-391): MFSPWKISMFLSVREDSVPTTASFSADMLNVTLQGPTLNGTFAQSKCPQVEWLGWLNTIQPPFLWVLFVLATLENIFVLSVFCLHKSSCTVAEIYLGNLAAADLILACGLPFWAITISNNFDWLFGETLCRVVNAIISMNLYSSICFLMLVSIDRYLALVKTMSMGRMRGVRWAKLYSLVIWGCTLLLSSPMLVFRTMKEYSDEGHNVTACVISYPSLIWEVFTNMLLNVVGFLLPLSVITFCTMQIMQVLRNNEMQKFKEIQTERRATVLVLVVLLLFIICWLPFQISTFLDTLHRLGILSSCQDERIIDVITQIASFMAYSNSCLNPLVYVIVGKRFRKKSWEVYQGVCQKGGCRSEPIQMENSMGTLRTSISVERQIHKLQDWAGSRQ
Excerpt: Supplementary Methods: Immunoblots for c-Fos signaling
The construction of myc-tagged B2 receptor expression vector containing the human receptor sequence has been recently reported, as well as the derivation of HEK293a cell lines that stably express the construction (Charest-Morin et al., 2015). Immunoblotting experiments, conducted as described (Koumbadinga et al., 2010), were used to study the effect of selected antagonists on BK-induced signaling. Briefly, HEK 293a cells stably expressing the human myc-B2 receptor were stimulated with BK agonists for 60 min at 37°C, with or without a pretreatment with the antagonist (applied 15 min before BK). Total cell extracts were immunoblotted to detect c-Fos expression using the K-25 rabbit polyclonal antibodies (Santa Cruz Biotechnology, Dallas, TX; dilution 1:50,000). In these experiments, β-actin was used as a loading control and was detected using the monoclonal anti-β-actin antibody, clone AC-15 (Sigma-Aldrich; dilution 1:50,000).

[1] = Caco-2 permeation assay (bidirectional); conditions: human
prostanoid TP receptor = target: T2, prostanoid TP receptor (Homo sapiens, UniProt P21731); test: umbilical vein, U-46619-induced contraction; conditions: Compound 2 10 μM; Compound 3 1 μM
T2 construct: endogenous human prostanoid TP receptors in the umbilical vein model; from tissue; host or cells: human umbilical vein rings
T2 sequence (P21731 whole entry): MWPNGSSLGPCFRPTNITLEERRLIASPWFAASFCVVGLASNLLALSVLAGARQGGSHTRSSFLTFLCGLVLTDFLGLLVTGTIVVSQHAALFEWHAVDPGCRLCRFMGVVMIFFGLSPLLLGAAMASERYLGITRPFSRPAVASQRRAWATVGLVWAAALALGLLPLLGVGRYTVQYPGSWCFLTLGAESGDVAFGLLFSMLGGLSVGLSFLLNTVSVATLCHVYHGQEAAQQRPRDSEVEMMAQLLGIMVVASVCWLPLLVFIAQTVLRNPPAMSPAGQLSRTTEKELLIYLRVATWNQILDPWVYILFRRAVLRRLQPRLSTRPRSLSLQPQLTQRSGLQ
Excerpt: (§1) The local ethics committee (CHU de Québec-Université Laval) had approved the project (File no. 2017-3720). Umbilical cords were obtained following elective caesarean sections; all problematic deliveries are excluded. Informed consent was obtained from the mothers. The cords were transported from the maternity ward to the laboratory in sterile Hank's balanced salt solution containing penicillin and streptomycin. Segments of umbilical veins were dissected carefully from the cords and a metal rod was inserted in the lumen. Excess connective tissue was excised and rings (2–3 mm wide) were cut. Rings of umbilical veins were suspended in 5-mL organ chambers containing oxygenated (95% O2, 5% CO2) and warmed (37°C) Krebs' solution between a metal hook and a thread loop. This solution had the following composition: NaCl 117.5 mM, KCl 4.7 mM, KH2PO4 1.2 mM, MgSO4 1.18 mM, CaCI2 2.5 mM, NaHCO3 25.0 mM, and D-glucose 5.5 mM. A baseline of one gram-weight was applied to these preparations. Changes of tension were recorded by using isometric transducers (model 52-9545, Harvard Bioscience, South Natick MA). Eight tissue baths are operated in parallel.
(§2) For this purpose, contractile responses to serotonin, acting on the 5-HT2A receptor, and U-46619, acting at the prostanoid TP receptor, were measured ([Rogines-Velo et al., 2002]; [Daray et al., 2003]).

[2] = target: T3, endogenous human B2 receptor (Homo sapiens, UniProt P30411); test: human isolated umbilical vein contractility assay, BK-induced contraction; conditions: for type of antagonism of BK: BK concentration-effect curves, Emax; for pA2 / Kb: Schild plot; for pA2 / Kb / Schild plot slope: Pharm/PCS, ± S.E.M. where given; for Kb: read-out: pA2 (converted); for Schild plot slope: Schild regression; for Maximal BK-induced response in absolute force units ± S.E.M.: vehicle: Icatibant 1.90, Compound 1 […]; for pA2 value converted into nM: potency from pA2
T3 construct: BK-induced contraction at endogenous human B2 receptor in the umbilical vein model; from tissue; host or cells: human umbilical vein rings (donor cords after elective caesarean section)
T3 sequence (P30411 1-391): T1 sequence (P30411 1-391)

[3] = target: T4, myc-tagged human B2 receptor (Homo sapiens, UniProt P30411); test: antibody internalization assay, HEK 293a cells; type: cell-based; conditions: BK 100 nM; antagonist 1 nM to 1 μM, 15 min before BK
T4 construct: expressed in transfected cells
Method: B2 receptor-mediated transport of immune complexes constructed at the cell surface was previously reported ([Bawolak et al., 2011]). Intact HEK 293a cells stably expressing the N-terminally myc-tagged B2 receptor construction (human sequence, [Charest-Morin et al., 2015]) were treated with the monoclonal anti-myc antibody (clone 4A6) conjugated with AlexaFluor-488 (Millipore, dilution 1:500) added to the culture medium. Cells were further incubated at 37°C. Without rinsing, a selected antagonist or their DMSO vehicle was added 5 min later, and BK (100 nM) or its saline vehicle 15 min later. After an additional 30 min incubation period at 37°C, cells were rinsed 3 times with Hank's balanced salt solution (Multicell Wisent, St. Bruno, Canada) and photographed in transmission and epifluorescence using an Olympus BX51 microscope coupled to a CoolSnap HQ digital camera (filters for AlexaFluor 488: excitation 460–500 nm, emission 510–560 nm).

microsomal stability = conditions: for microsomal CLint at 1 µM: male, Wistar, rat, liver microsomes, pH 7.4
B2 receptor [4] = target: T5, B2 receptor (Homo sapiens, UniProt P30411); test: Ca^2+ mobilization assay, transfected CHO cells; type: cell-based; design: host or cells: CHO cells; conditions: for IC50 / Kb: inhibition of response to 0.03 nM BK
T5 sequence (P30411 1-391): T1 sequence (P30411 1-391)

B2 receptor [5] = target: T5, B2 receptor; test: [^3H]BK competition binding assay, CHO cell membranes; design: host or cells: CHO cells; conditions: for IC50 / Ki: competition with 0.3 nM [^3H]BK; for fold lower affinity compared to Compound 3 and icatibant: radioligand binding
5-HT2A receptor = target: T6, 5-HT2A receptor (Homo sapiens, UniProt P28223); test: umbilical vein, serotonin-induced contraction; conditions: Compound 2 10 μM; Compound 3 1 μM
T6 construct: other endogenously expressed receptors in the human umbilical vein; from tissue; host or cells: human umbilical vein rings
T6 sequence (P28223 whole entry): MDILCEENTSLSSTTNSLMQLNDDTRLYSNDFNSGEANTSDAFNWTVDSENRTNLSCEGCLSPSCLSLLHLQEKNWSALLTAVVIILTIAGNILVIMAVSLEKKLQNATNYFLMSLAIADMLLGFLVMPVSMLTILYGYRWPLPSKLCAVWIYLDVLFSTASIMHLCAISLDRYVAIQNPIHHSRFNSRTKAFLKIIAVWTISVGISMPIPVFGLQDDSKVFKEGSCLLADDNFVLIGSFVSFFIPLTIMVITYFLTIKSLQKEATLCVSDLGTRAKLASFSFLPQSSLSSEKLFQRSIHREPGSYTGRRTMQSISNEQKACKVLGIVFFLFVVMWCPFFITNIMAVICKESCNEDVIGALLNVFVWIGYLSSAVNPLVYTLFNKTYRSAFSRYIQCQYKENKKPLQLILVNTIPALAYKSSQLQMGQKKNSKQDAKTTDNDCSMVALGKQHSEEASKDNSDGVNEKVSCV
Excerpt: as §1, §2

[6] = target: T7, cynomolgus monkey B2 receptor (Macaca fascicularis, UniProt A0A7N9CWN6); conditions: mean ± S.D.
T7 sequence (A0A7N9CWN6 1-391): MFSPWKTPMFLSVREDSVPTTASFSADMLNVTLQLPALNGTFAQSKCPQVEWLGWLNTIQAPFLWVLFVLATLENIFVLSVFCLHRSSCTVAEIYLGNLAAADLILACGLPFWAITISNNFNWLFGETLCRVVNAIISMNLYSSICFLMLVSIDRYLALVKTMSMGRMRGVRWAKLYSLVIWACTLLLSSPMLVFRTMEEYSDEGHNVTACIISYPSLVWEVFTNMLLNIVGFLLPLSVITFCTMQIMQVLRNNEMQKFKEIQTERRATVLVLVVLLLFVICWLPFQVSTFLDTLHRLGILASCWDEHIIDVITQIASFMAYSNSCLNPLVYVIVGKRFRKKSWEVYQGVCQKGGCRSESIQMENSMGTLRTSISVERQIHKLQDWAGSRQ

[7] = target: T7, cynomolgus monkey B2 receptor; test: cell-based
[8] = antagonist 10 nM, Compound 2 2.25, Compound 3 1.52
[9] = antagonist 100 nM, Compound 2 2.25, Compound 3 1.52
[10] = antagonist 1 μM, Compound 2 2.25, Compound 3 1.52
[11] = antagonist 10 μM, Compound 2 2.25
[12] = arithmetic mean, read-out: IC50 (nM) Mean
[13] = arithmetic mean, read-out: Kb (nM) Mean
[14] = geometric mean, read-out: IC50 (nM) Geometric mean
[15] = geometric mean, read-out: Kb (nM) Geometric mean
[16] = arithmetic mean, read-out: Ki (nM) Mean
[17] = geometric mean, read-out: Ki (nM) Geometric mean

Papp A→B at 60 min, 10 µM [1] [nm/s]	Papp B→A at 60 min, 10 µM [1] [nm/s]	efflux ratio at 60 min, 10 µM [1]	type of antagonism of BK [2]	pA2 [2]	Kb [2] [nM]	Schild plot slope [2]	Maximal BK-induced response in absolute force units ± S.E.M. [2, 8] [grams-weight]	Maximal BK-induced response in absolute force units ± S.E.M. [2, 9] [grams-weight]	Maximal BK-induced response in absolute force units ± S.E.M. [2, 10] [grams-weight]	Maximal BK-induced response in absolute force units ± S.E.M. [2, 11] [grams-weight]	pA2 value converted into nM [2] [nM]	microsomal CLint at 1 µM (microsomal stability) [µL/min/mg]	IC50 (B2 receptor [4]; [12]) [nM]	Kb (B2 receptor [4]; [13]) [nM]	IC50 (B2 receptor [4]; [14]) [nM]	Kb (B2 receptor [4]; [15]) [nM]	IC50 (B2 receptor [5]; [12]) [nM]	Ki (B2 receptor [5]; [16]) [nM]	IC50 (B2 receptor [5]; [14]) [nM]	SMILES	other results
39	299	7.7	competitive	9.02 ± 0.31	0.955	−0.65	2.07 ± 0.30	2.26 ± 0.42	2.00 ± 0.32	1.82 ± 0.18	0.95	497	9.57	1.08	8.3	0.95	7.6	3.9	7.6	Cc1cc(-c2ncnn2C)c2cccc(OCc3c(Cl)cncc3C(C)NC(=O)COC(F)F)c2n1 (racemic) [Compound 2, rac-N-(1-(5-chloro-4-((2-methyl-4-(1-methyl-1H-1,2,4-triazol-5-yl)quinolin-8-yloxy)methyl)pyridin-3-yl)ethyl)-2-(difluoromethoxy)acetamide]	antagonist concentration that significantly reduced the c-Fos response to BK (human myc-B2 receptor; 60 min): 100 nM; effect on BK-induced c-Fos accumulation (human myc-B2 receptor; co-treatment between 10 nM and 1 μM): inhibited this response in a concentration-dependent manner; effect on U-46619-induced contraction (prostanoid TP receptor): failed to modify; concentration with clear efficacy in inhibiting BK-induced endocytosis [3]: ≥ 100 nM; fold lower intrinsic clearance compared with Compound 3 (so in the source) (microsomal stability; rat microsomal stability assay): 18 fold; fold lower potency compared with Compound 3 (B2 receptor [4]; B2 receptor): 4.0 fold; Ki (B2 receptor [5]; [17]): 3.9 nM; fold lower affinity compared to Compound 3 and icatibant (B2 receptor [5]): about 7 fold; effect on serotonin-induced contraction (5-HT2A receptor): failed to modify
																				N=C(N)NCCC[C@H](NC(=O)[C@H](Cc1ccccc1)NC(=O)[C@@H]1CCCN1C(=O)[C@H](CO)NC(=O)[C@H](Cc1ccccc1)NC(=O)CNC(=O)[C@@H]1CCCN1C(=O)[C@@H]1CCCN1C(=O)[C@@H](N)CCCNC(=N)N)C(=O)O [BK] (H-RPPGFSPFR-OH)	average agonist EC80, Ca^2+ mobilization [6]: 0.539 ± 0.16 nM
																				NC(N)=NCCC[C@H](NC(=O)[C@H](Cc1ccccc1)NC(=O)[C@@H]1CCCN1C(=O)[C@H](CO)NC(=O)[C@H](Cc1ccccc1)NC(=O)CNC(=O)[C@@H]1CCCN1C(=O)[C@@H]1CCCN1C(=O)[C@@H](N)CCCN=C(N)N)C(=O)O [BK] (H-RPPGFSPFR-OH)	EC50 [7]: 0.155 ± 0.043 nM
55	209	5.5	competitive	8.58 ± 0.26	2.63	−0.62	1.48 ± 0.24	2.08 ± 0.28	1.46 ± 0.20	1.67 ± 0.28	2.63	960	11.3	1.3	11	1.24	7.4	3.8	7.4	Cc1cc(-c2ncnn2C)c2cccc(OCc3c(Cl)cncc3CNC(=O)C3CCCCC3)c2n1 [Compound 1, N-((5-chloro-4-((2-methyl-4-(1-methyl-1H-1,2,4-triazol-5-yl)quinolin-8-yloxy)methyl)pyridin-3-yl)methyl)cyclohexanecarboxamide]	Ki (B2 receptor [5]; [17]): 3.8 nM; fold lower affinity compared to Compound 3 and icatibant (B2 receptor [5]): about 7 fold
